Results from patent US9474790B2, “Stable, protracted GLP-1/glucagon receptor co-agonists for medical use” (Novo Nordisk A/S, priority 2013, dated 2016).
Numbered stars: 1 amine (or outer) side, 2 acyl side, 3 side chain; on linkers, the order of the positions; unused ones are H or OH. Square brackets hold non-standard residues; d marks the D form. Side chains are listed from the residue outwards. Peptide text beside a SMILES is read from it. * marks the point of attachment. C18 diacid = O=C(O)CCCCCCCCCCCCCCCCC(=O)*; γGlu = O=C(O)[C@H](CCC(=O)[*:2])N[*:1]; AEEA = NCCOCCOCC(=O)O; Aib = CC(C)(N)C(=O)O

Assays:
human GLP-1 receptor [1] = biological target: T1, human GLP-1 receptor (Homo sapiens, UniProt P43220); assay: GLP-1 receptor potency, CRE luciferase reporter gene assay in BHK cells; format: cell-based; conditions: BHK cells expressing human GLP-1 receptor, read-out: EC50 GLP-1R
T1 construct: expressed in transfected cells; host or cells: BHK cells (parent BHKTS13), clone FCW467-12A/KZ10-1, with CRE luciferase
T1 sequence (P43220 24-463): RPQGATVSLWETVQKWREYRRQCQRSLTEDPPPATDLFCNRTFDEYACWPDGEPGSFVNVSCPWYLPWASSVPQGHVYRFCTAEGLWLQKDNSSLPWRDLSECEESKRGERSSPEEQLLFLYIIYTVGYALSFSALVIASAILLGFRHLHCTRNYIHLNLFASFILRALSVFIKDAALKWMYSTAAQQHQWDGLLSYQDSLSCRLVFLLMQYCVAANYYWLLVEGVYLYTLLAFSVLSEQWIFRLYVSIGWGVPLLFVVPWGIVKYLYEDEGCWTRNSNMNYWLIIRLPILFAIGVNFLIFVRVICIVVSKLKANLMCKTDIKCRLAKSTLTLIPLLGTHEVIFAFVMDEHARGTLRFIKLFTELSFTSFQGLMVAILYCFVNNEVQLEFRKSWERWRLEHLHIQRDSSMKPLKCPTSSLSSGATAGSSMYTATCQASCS
Method in brief: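 Potency as cAMP-driven firefly luciferase signal after 3 h, 37° C exposure to 10-fold dilutions (final 1×10EE-13–1×10EE-6 M). Stable hGLP-1R/CRE-luc BHK clone, 5×10EE3 cells/well, medium containing 2% ovalbumin and 0.2% Pluronic F-68; EC50 (pM) from variable-slope non-linear regression.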

human GLP-1 receptor [2] = biological target: T1, human GLP-1 receptor; assay: GLP-1 receptor binding, 125I-GLP-1 displacement SPA on isolated membranes; conditions: displacement of 125I-GLP-1 from membranes; read-out: IC50 GLP-1R
Method in brief: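 Test derivatives, serially diluted, competed with 125I-GLP-1(7-36)NH2 for the human GLP-1 receptor on BHK membranes, read by WGA-bead scintillation proximity after 2 h at 30°C, pH 7.4 HEPES/EGTA/MgCl2 buffer. Final serum albumin was either ≤0.001% or 2.0%; IC50 from non-linear fit.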

Row | EC50 (human GLP-1 receptor [1]) | IC50 (human GLP-1 receptor [2]) | Structure (SMILES)
1 | 0.003 nM | 0.5 nM | CC(C)C[C@H](NC(=O)[C@H](Cc1ccc(O)cc1)NC(=O)[C@H](CCCNC(=N)N)NC(=O)[C@H](CO)NC(=O)[C@@H](NC(=O)[C@H](CC(=O)O)NC(=O)[C@H](CO)NC(=O)[C@@H](NC(=O)[C@H](Cc1ccccc1)NC(=O)[C@@H](NC(=O)CNC(=O)[C@H](CCC(N)=O)NC(=O)C(C)(C)NC(=O)[C@@H](N)Cc1c[nH]cn1)[C@@H](C)O)[C@@H](C)O)C(C)C)C(=O)N[C@@H](CC(=O)O)C(=O)N[C@@H](C)C(=O)N[C@@H](CCCNC(=N)N)C(=O)N[C@@H](CCCNC(=N)N)C(=O)N[C@@H](C)C(=O)N[C@@H](CCC(N)=O)C(=O)N[C@@H](CC(=O)O)C(=O)N[C@@H](Cc1ccccc1)C(=O)N[C@H](C(=O)N[C@@H](CCC(N)=O)C(=O)N[C@@H](Cc1c[nH]c2ccccc12)C(=O)N[C@@H](CC(C)C)C(=O)N[C@@H](CC(C)C)C(=O)N[C@@H](CCCCNC(=O)COCCOCCNC(=O)COCCOCCNC(=O)CC[C@H](NC(=O)CC[C@H](NC(=O)CC[C@H](NC(=O)CCCCCCCCCCCCCCCCC(=O)O)C(=O)O)C(=O)O)C(=O)O)C(=O)N[C@H](C(N)=O)[C@@H](C)O)C(C)C [Example 72, N^ε28-[2-[2-[2-[(2-[2-[2-[[(4S)-4-carboxy-4-[[(4S)-4-carboxy-4-[[(4S)-4-carboxy-4-(17-carboxyheptadecanoylamino)butanoyl]amino]butanoyl]amino]butanoyl]amino]ethoxy]ethoxy]acetyl]amino]ethoxy]ethoxy]acetyl]-[Aib2,Val10,Arg12,Ala16,Leu27,Lys28]-Glucagon amide] (H-H[Aib]QGTFTSDVSRYLDARRAQDFVQWLLK([AEEA-AEEA-γGlu-γGlu-γGlu-C18 diacid])T-NH2)
2 | 0.005 nM | 1.5 nM | CC(C)C[C@H](NC(=O)[C@H](CC(=O)O)NC(=O)[C@H](CC(C)C)NC(=O)[C@H](Cc1ccc(O)cc1)NC(=O)[C@H](CCCNC(=N)N)NC(=O)[C@H](CO)NC(=O)[C@@H](NC(=O)[C@H](CC(=O)O)NC(=O)[C@H](CO)NC(=O)[C@@H](NC(=O)[C@H](Cc1ccccc1)NC(=O)[C@@H](NC(=O)CNC(=O)[C@H](CCC(N)=O)NC(=O)C(C)(C)NC(=O)[C@@H](N)Cc1c[nH]cn1)[C@@H](C)O)[C@@H](C)O)C(C)C)C(=O)N[C@@H](CCCNC(=N)N)C(=O)N[C@@H](CCCNC(=N)N)C(=O)N[C@@H](C)C(=O)N[C@@H](CCC(N)=O)C(=O)N[C@@H](CC(=O)O)C(=O)N[C@@H](Cc1ccccc1)C(=O)N[C@H](C(=O)N[C@@H](CCC(N)=O)C(=O)N[C@@H](Cc1c[nH]c2ccccc12)C(=O)N[C@@H](CC(C)C)C(=O)N[C@@H](CC(C)C)C(=O)N[C@@H](CCCCNC(=O)COCCOCCNC(=O)COCCOCCNC(=O)CC[C@H](NC(=O)CC[C@H](NC(=O)CC[C@H](NC(=O)CCCCCCCCCCCCCCCCC(=O)O)C(=O)O)C(=O)O)C(=O)O)C(=O)N[C@H](C(N)=O)[C@@H](C)O)C(C)C [Example 73, N^ε28-[2-[2-[2-[[2-[2-[2-[[(4S)-4-carboxy-4-[[(4S)-4-carboxy-4-[[(4S)-4-carboxy-4-(17-carboxyheptadecanoylamino)butanoyl]amino]butanoyl]amino]butanoyl]amino]ethoxy]ethoxy]acetyl]amino]ethoxy]ethoxy]acetyl]-[Aib2,Val10,Arg12,Leu16,Leu27,Lys28]-Glucagon amide] (H-H[Aib]QGTFTSDVSRYLDLRRAQDFVQWLLK([AEEA-AEEA-γGlu-γGlu-γGlu-C18 diacid])T-NH2)
